Where two headings read alike, the source gives them in different places. Non-standard residues stand in square brackets, D forms with d. Residues, ends and D or L forms follow the SMILES beside them. *: point of attachment. Phe(F5) = N[C@@H](Cc1c(F)c(F)c(F)c(F)c1F)C(=O)O; Desaminotyrosyl = O=C(CCc1ccc(O)cc1)*; NMeY = CN[C@@H](Cc1ccc(O)cc1)C(=O)O; Agmatine = N=C(N)NCCCCN*; Nle = CCCC[C@H](N)C(=O)O; Orn = NCCC[C@H](N)C(=O)O; Abu = CC[C@H](N)C(=O)O; GABA = NCCCC(=O)O
Key:
[1] = target: T1, GHRH receptor (human pituitary membrane homogenates) (Homo sapiens, UniProt Q02643); assay: GHRH receptor binding, ligand competition with 125I-labeled [His1,Nle27]hGHRH(1-32)NH2 (Table 6)
T1 sequence (Q02643 23-423): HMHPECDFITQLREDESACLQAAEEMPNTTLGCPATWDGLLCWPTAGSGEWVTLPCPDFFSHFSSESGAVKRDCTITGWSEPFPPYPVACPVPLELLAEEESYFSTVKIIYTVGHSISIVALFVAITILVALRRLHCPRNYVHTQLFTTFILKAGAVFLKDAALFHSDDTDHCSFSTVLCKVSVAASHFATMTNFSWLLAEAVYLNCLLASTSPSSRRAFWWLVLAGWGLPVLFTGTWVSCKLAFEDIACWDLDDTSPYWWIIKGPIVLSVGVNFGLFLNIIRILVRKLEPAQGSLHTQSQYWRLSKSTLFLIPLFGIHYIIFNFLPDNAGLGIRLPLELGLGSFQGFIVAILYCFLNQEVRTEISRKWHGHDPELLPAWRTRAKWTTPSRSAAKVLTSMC

[2] = target: T1, GHRH receptor (human pituitary membrane homogenates); assay: GHRH receptor binding, ligand competition with 125I-labeled JV-1-42 (Table 7); design: Normal human pituitaries were purchased from the National Hormone and Peptide Program; tissue National Hormone and Peptide Program (A. F. Parlow, Harbor-UCLA Medical Center, Torrance, Calif.); host or cells: normal human pituitary, membrane fraction / homogenate; conditions: JI-38 = 1
rat pituitary cells = assay: GH release in superfused rat pituitary cell system; type: cell-based; conditions: 1 nM, 3-min pulse; for GH Response (ng/ml) Average: average of runs; for GH Response (ng/ml) 1: run 1; for GH Response (ng/ml) 2: run 2
Description: Growth hormone releasing activity. Growth hormone releasing was assayed by using a superfused rat pituitary cell system as described in S. Vigh and A. V. Schally, Peptides 5, Suppl: 241-347, 1984. The new synthetic peptide analog of hGHRH P20356 and JI-38 (as control) were administered for 3 minutes (1 mL perfusate) at 1 nM concentration as shown below. Fractions of 1 ml are collected and the GH content in each was determined by ELISA.
Pituitary cells from 2 male rats were used for each channel of the superfusion system. The cells were exposed to 3-min pulses of the new GHRH agonists or to JI-38 as standard every 30 min. Outflowing samples of each channel (1 ml) were collected every 3 min, and GH levels were determined by ELISA.

[3] = target: T1, GHRH receptor (human pituitary membrane homogenates); assay: GHRH receptor binding, ligand competition with 125I-labeled JV-1-42 (Table 5); conditions: for Relative affinitiy (Binding potency) vs GHRH: GHRH(1-29) = 1; for Relative affinitiy (Binding potency) vs JI-38: JI-38 = 1
Description: Normal human pituitaries were purchased from the National Hormone and Peptide Program (A. F. Parlow, Los Angeles, County Harbor-UCLA Medical Center, Torrance, Calif.).

INS-1 cells = assay: INS-1 proliferation (BrdU Cell Proliferation Assay); type: cell-based, rat; conditions: different concentrations, 24 h, 48 h and 72 h
Description: For determination of proliferation activity, BrdU incorporation was performed in INS-1 cells following exposure to P-27403. Proliferation was measured using BrdU Cell Proliferation Assay (Millipore) following the manufacturer's description. The maximal enhancement in proliferation rate of 16% compared to control was found at 10^−8 M concentration of P-27403 (FIG. 1C).
INS-1 cells were grown for 72 h before experimentation. Cells were treated with GHRH agonists MR356, MR367, and MR403 at different concentrations or with 0.1% (vol/vol) DMSO as control for 24 h, 48 h and 72 h. Proliferation was measured using BrdU Cell Proliferation Assay (Millipore) following the manufacturer's description.

GH level [4] = assay: In vivo endocrine activity (GH release), intravenous administration; conditions: rat
Description: In vivo tests on endocrine activity of new GHRH agonists (Intravenous administration). For in vivo tests based on intravenous administration, adult male Sprague-Dawley rats were anesthetized with pentobarbital (6 mg/100/g, b.w.), and GHRH agonists were injected 20 minutes after the injection of pentobarbital. Blood samples were taken from the jugular vein (pretreated level), immediately after hGHRH(1-29)NH2 injection (as a control) or after hGHRH analogs injection. Blood samples were taken from the jugular vein 5, 15 and 30 minutes after the injection. The blood samples were centrifuged, plasma was removed and the GH level was measured by ELISA.

GH level [5] = assay: In vivo endocrine activity (GH release), subcutaneous administration; conditions: rat, s.c.
Description: Subcutaneous Administration. Adult male rats were used and anesthetized with pentobarbital (6 mg/100 g, b.w.), by i.p. injection. […] Blood samples were taken from the jugular vein 5, 15 and/or 30 minutes after the injection. The blood samples were centrifuged, plasma was removed and the GH level was measured by ELISA. The results are summarized in terms of potency in Table 9.

[6] = target: T2, GHRH receptor in human pituitary membrane homogenates (human, UniProt Q02643); assay: ligand competition, 125I-JV-1-42 displaced, human pituitary membranes
T2 sequence: T1 sequence (Q02643 23-423)

[7] = target: T2, GHRH receptor in human pituitary …; assay: as above; remark: listed apart in the source
[8] = fraction 1 (P-20356) / 21 (JI-38)
[9] = fraction 2 (P-20356) / 22 (JI-38)
[10] = fraction 3 (P-20356) / 23 (JI-38)
[11] = fraction 4 (P-20356) / 24 (JI-38)
[12] = fraction 5 (P-20356) / 25 (JI-38)

## CCCC[C@H](NC(=O)[C@@H](NC(=O)[C@H](CC(=O)O)NC(=O)[C@H](CCC(N)=O)NC(=O)[C@H](CC(C)C)NC(=O)[C@H](CC(C)C)NC(=O)[C@H](CCCN)NC(=O)[C@H](CCCNC(=N)N)NC(=O)[C@H](C)NC(=O)[C@H](CO)NC(=O)[C@H](CC(C)C)NC(=O)[C@H](CCC(N)=O)NC(=O)[C@H](CC)NC(=O)[C@H](CC(C)C)NC(=O)[C@@H](NC(=O)[C@H](CCCN)NC(=O)[C@H](CCCNC(=N)N)NC(=O)[C@H](Cc1ccc(O)cc1)NC(=O)[C@H](CO)NC(=O)[C@H](CCC(N)=O)NC(=O)[C@@H](NC(=O)[C@H](Cc1ccccc1)NC(=O)[C@@H](NC(=O)[C@H](C)NC(=O)[C@H](CC(=O)O)NC(=O)[C@H](C)NC(=O)CCc1ccc(O)cc1)[C@@H](C)CC)[C@@H](C)O)C(C)C)[C@@H](C)CC)C(=O)N[C@@H](CC(=O)O)C(=O)NCCCCNC(=N)N [JI-38, reference compound] (Desaminotyrosyl-ADAIFTQSYR[Orn]VL[Abu]QLSAR[Orn]LLQDI[Nle]D-Agmatine)
[1]; GHRH(1-29) = 1
  Relative affinitiy (Binding potency) vs GHRH: 3.03
[1]; JI-38 = 1
  Relative affinitiy (Binding potency) vs JI-38: 1
[2]
  Relative affinitiy (Binding potency) vs JI-38: 1
Rat pituitary cells; [8]
  GH Response (ng/ml) Average: 49.27 ng/mL
  GH Response (ng/ml) 1: 42.46 ng/mL
  GH Response (ng/ml) 2: 56.07 ng/mL
Rat pituitary cells; [9]
  GH Response (ng/ml) Average: 131.71 ng/mL
  GH Response (ng/ml) 1: 143.58 ng/mL
  GH Response (ng/ml) 2: 119.83 ng/mL
Rat pituitary cells; [10]
  GH Response (ng/ml) Average: 194.68 ng/mL
  GH Response (ng/ml) 1: 222.13 ng/mL
  GH Response (ng/ml) 2: 167.23 ng/mL
Rat pituitary cells; [11]
  GH Response (ng/ml) Average: 137.45 ng/mL
  GH Response (ng/ml) 1: 142.96 ng/mL
  GH Response (ng/ml) 2: 131.93 ng/mL
Rat pituitary cells; [12]
  GH Response (ng/ml) Average: 96.70 ng/mL
  GH Response (ng/ml) 1: 96.34 ng/mL
  GH Response (ng/ml) 2: 97.05 ng/mL
[3]
  Relative affinitiy (Binding potency) vs GHRH: 2.4
  Relative affinitiy (Binding potency) vs JI-38: 1

## CCCC[C@H](NC(=O)[C@@H](NC(=O)[C@H](CC(=O)O)NC(=O)[C@H](CCC(N)=O)NC(=O)[C@H](CC(C)C)NC(=O)[C@H](CC(C)C)NC(=O)[C@H](CCCN)NC(=O)[C@H](CCCNC(=N)N)NC(=O)[C@H](C)NC(=O)[C@H](CO)NC(=O)[C@H](CC(C)C)NC(=O)[C@H](CCC(N)=O)NC(=O)[C@H](CC)NC(=O)[C@H](CC(C)C)NC(=O)[C@@H](NC(=O)[C@H](CCCN)NC(=O)[C@H](CCCNC(=N)N)NC(=O)[C@H](Cc1ccc(O)cc1)NC(=O)[C@H](CO)NC(=O)[C@H](CC(N)=O)NC(=O)[C@@H](NC(=O)[C@H](Cc1ccccc1)NC(=O)[C@@H](NC(=O)[C@H](C)NC(=O)[C@H](CC(=O)O)NC(=O)[C@@H](C)NC(=O)[C@H](Cc1ccc(O)cc1)NC)[C@@H](C)CC)[C@@H](C)O)C(C)C)[C@@H](C)CC)C(=O)N[C@@H](CC(=O)O)C(=O)NCCCCNC(=N)N [Peptide P-20367, [N—Me-Tyr^1, D-Ala^2, Orn^12, Abu^15, Orn^21, Nle^27, Asp^28, Agm^29]hGHRH(1-29)] (H-[NMeY][dA]DAIFTNSYR[Orn]VL[Abu]QLSAR[Orn]LLQDI[Nle]D-Agmatine)
[2]
  Relative affinitiy (Binding potency) vs JI-38: 2.56
INS-1 cells
  Cell proliferation compared to control: significantly induced cell proliferation

## CCCC[C@H](NC(=O)[C@@H](NC(=O)[C@H](CC(=O)O)NC(=O)[C@H](CCC(N)=O)NC(=O)[C@H](CC(C)C)NC(=O)[C@H](CC(C)C)NC(=O)[C@H](CCCN)NC(=O)[C@H](CCCNC(=N)N)NC(=O)[C@H](C)NC(=O)[C@H](CO)NC(=O)[C@H](CC(C)C)NC(=O)[C@H](CCC(N)=O)NC(=O)[C@H](CC)NC(=O)[C@H](CC(C)C)NC(=O)[C@@H](NC(=O)[C@H](CCCN)NC(=O)[C@H](CCCNC(=N)N)NC(=O)[C@H](Cc1ccc(O)cc1)NC(=O)[C@H](CO)NC(=O)[C@H](CC(N)=O)NC(=O)[C@@H](NC(=O)[C@H](Cc1c(F)c(F)c(F)c(F)c1F)NC(=O)[C@@H](NC(=O)[C@H](C)NC(=O)[C@H](CC(=O)O)NC(=O)[C@@H](C)NC(=O)CCc1ccc(O)cc1)[C@@H](C)CC)[C@@H](C)O)C(C)C)[C@@H](C)CC)C(=O)N[C@@H](CO)C(=O)N[C@@H](CCCNC(=N)N)C(=O)NCCCC(N)=O [Peptide P-25502, [Dat^1, D-Ala^2, Fpa5^6, Orn^12, Abu^15, Orn^21, Nle^27, Gab^30]hGHRH(1-30)NH2] (Desaminotyrosyl-[dA]DAI[Phe(F5)]TNSYR[Orn]VL[Abu]QLSAR[Orn]LLQDI[Nle]SR[GABA]-NH2)
GH level [4]
  Stimulation of growth hormone levels after i.v. administration (comparison in words): most potent
[2]
  Relative affinitiy (Binding potency) vs JI-38: 13.18
GH level [5]
  Stimulation of growth hormone levels after s.c. administration (comparison in words): stimulated greater growth hormone levels than hGHRH or JI-38
[3]
  Relative affinitiy (Binding potency) vs GHRH: 58.0
  Relative affinitiy (Binding potency) vs JI-38: 24.4

B1: [Dat1, D-Ala2, Gln8, Orn12, Abu15, Orn21, Nle27, Asp28, Agm29]hGHRH(1-29) (peptide)
peptide: [Desaminotyrosyl][dA]DAIFTQSYR[Orn]VL[Abu]QLSAR[Orn]LLQDI[Nle]D[Agmatine]
SMILES: CCCC[C@H](NC(=O)[C@@H](NC(=O)[C@H](CC(=O)O)NC(=O)[C@H](CCC(N)=O)NC(=O)[C@H](CC(C)C)NC(=O)[C@H](CC(C)C)NC(=O)[C@H](CCCN)NC(=O)[C@H](CCCNC(=N)N)NC(=O)[C@H](C)NC(=O)[C@H](CO)NC(=O)[C@H](CC(C)C)NC(=O)[C@H](CCC(N)=O)NC(=O)[C@H](CC)NC(=O)[C@H](CC(C)C)NC(=O)[C@@H](NC(=O)[C@H](CCCN)NC(=O)[C@H](CCCNC(=N)N)NC(=O)[C@H](Cc1ccc(O)cc1)NC(=O)[C@H](CO)NC(=O)[C@H](CCC(N)=O)NC(=O)[C@@H](NC(=O)[C@H](Cc1ccccc1)NC(=O)[C@@H](NC(=O)[C@H](C)NC(=O)[C@H](CC(=O)O)NC(=O)[C@@H](C)NC(=O)CCc1ccc(O)cc1)[C@@H](C)CC)[C@@H](C)O)C(C)C)[C@@H](C)CC)C(=O)N[C@@H](CC(=O)O)C(=O)NCCCCNC(=N)N
[6]
  IC50: 0.52 nM
  relative affinity (binding potency) vs JI-38: 8.37 JI-38 = 1
[7]
  IC50: 0.04 nM
  relative affinity (binding potency) vs GHRH: 102 GHRH(1-29) = 1
  relative affinity (binding potency) vs JI-38: 42.7 JI-38 = 1

Source: patent publication US9393271B2, “GHRH agonists for islet cell transplantation and function and the treatment of diabetes” (UNIVERSITY OF MIAMI, priority 2012, dated 2016)
